These results are taken from patent US12428420B2, “Tricyclic heterocycles as FGFR inhibitors” (Incyte Corporation, priority 2021, dated 2025).

The target of experiment [1] is wild-type un-phosphorylated FGFR3 protein (Homo sapiens, UniProt P22607). In words: FGFR Enzymatic Assay (FRET peptide phosphorylation). Particulars: pre-incubated for 4 hours. The format is biochemical.
Method: The inhibitor potency of the exemplified compounds was determined in an enzyme discontinuous assay that measures peptide phosphorylation using FRET measurements to detect product formation. Inhibitors were serially diluted in DMSO and a volume of 0.2 μL was transferred to the wells of a 384-well plate. A 5 μL/well volume of enzyme isoforms of FGFR (-1, -2, -3 wild-type and mutant isoforms, -4) including phosphorylated and un-phosphorylated proteins diluted in assay buffer (50 mM HEPES, 10 mM MgCl2, 1 mM EGTA, 0.01% Tween-20, 5 mM DTT, pH 7.5) was added to the plate and pre-incubated with inhibitor for 5 to 15 minutes at ambient temperature. Appropriate controls (enzyme blank and enzyme with no inhibitor) were included on the plate. The reaction was initiated by the addition of a 5 μL/well volume containing both biotinylated [sequence] peptide substrate (SEQ ID NO: 1) and ATP in assay buffer. The 10 μL/well reaction concentration of the peptide substrate was 500 nM whereas the ATP concentration was maintained near or below the ATP Km. The ATP Km values were pre-determined in a separate series of experiments. The reaction plate was incubated at 25° C. for 1 hr and the reactions were ended with the addition of 5 μL/well of quench solution (50 mM Tris, 150 mM NaCl, 0.5 mg/mL BSA, pH 7.8; 45 mM EDTA, 600 nM staurosporin, with Perkin Elmer Lance Reagents at 3.75 nM Eu-antibody PY20 and 180 nM APC-Streptavidin). The plate was allowed to equilibrate for ˜10 minutes at ambient temperature before scanning on a PheraStar plate reader (BMG Labtech) instrument.
Either GraphPad prism or XLfit was used to analyze the data. The IC50 values were derived by fitting the data to a four parameter logistic equation producing a sigmoidal dose-response curve with a variable Hill coefficient. Prism equation: Y=Bottom+(Top−Bottom)/(1+10^((Log IC50−X)*Hill slope)); XLfit equation: Y=(A+((B−A)/(1+((X/C)^D)))) where X is the logarithm of inhibitor concentration and Y is the response.
In experiment [2] the test system is RT-112/84 cell line. Kind of experiment: Luminescent Viability Assay (CellTiter-Glo). The format is cell-based. Conditions: RT-112/84 cell line (bladder, FGFR3-TACC3), 3 days. As for the experimental part: RT112 cells (cell lines and genetic profiles further detailed in Table 2) were purchased from ATCC (Manassas, VA) and maintained in RPMI, 10% FBS (Gibco/Life Technologies). To measure the effect of test compounds on the viability of cells, the cells were plated with RPMI 10% FBS (5×10^3 cells/well/in 50 μL) into black 96-well Greiner polystyrene in the presence or absence of 50 μL of a concentration range of test compounds. After 3 days, 100 μL of CellTiter-Glo Reagent (Promega) was added. Luminescence was read with a TopCount (PerkinElmer). IC50 determination was performed by fitting the curve of percent inhibition versus the log of the inhibitor concentration using the GraphPad Prism 5.0 software.

Where only a bound is given, the exact number is not on record here.

Chain of wild-type un-phosphorylated FGFR3 protein (P22607 23-806): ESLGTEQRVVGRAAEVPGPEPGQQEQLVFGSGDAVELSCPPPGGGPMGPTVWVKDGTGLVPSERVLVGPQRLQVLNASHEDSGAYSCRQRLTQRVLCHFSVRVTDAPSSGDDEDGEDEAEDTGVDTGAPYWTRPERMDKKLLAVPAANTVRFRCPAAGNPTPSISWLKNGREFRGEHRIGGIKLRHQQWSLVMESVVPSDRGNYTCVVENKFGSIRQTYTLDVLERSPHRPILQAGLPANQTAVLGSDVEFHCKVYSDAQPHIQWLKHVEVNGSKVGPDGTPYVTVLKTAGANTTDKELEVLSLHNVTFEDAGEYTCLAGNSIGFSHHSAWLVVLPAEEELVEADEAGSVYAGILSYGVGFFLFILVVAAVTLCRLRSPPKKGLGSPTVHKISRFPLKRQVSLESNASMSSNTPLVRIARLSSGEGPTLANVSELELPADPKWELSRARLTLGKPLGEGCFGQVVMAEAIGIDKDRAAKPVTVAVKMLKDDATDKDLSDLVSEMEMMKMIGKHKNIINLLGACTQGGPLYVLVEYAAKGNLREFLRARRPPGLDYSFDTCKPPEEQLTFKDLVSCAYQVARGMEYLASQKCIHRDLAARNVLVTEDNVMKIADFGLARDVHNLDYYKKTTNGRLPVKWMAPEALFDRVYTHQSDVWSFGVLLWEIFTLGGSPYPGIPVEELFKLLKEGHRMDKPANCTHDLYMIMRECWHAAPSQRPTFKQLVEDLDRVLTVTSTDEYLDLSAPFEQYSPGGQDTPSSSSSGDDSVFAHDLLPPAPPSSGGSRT

Take `N#Cc1cc(Cn2cc(-c3cnc4ccn5c(CO)c(-c6c(Cl)cccc6Cl)nc5c4c3)cn2)ccn1` [Example 4, 4-((4-(2-(2,6-Dichlorophenyl)-3-(hydroxymethyl)imidazo[2,1-f][1,6]naphthyridin-9-yl)-1H-pyrazol-1-yl)methyl)picolinonitrile]: the IC50 in experiment [1] is under 1 nM; in experiment [2] (Homo sapiens, RT112/84, 72 h), under 10 nM.

`OCCn1cc(-c2cnc3ccn4c(C(F)F)c(-c5c(Cl)cccc5Cl)nc4c3c2)cn1` [Example 31, 2-(4-(2-(2,6-Dichlorophenyl)-3-(difluoromethyl)imidazo[2,1-f][1,6]naphthyridin-9-yl)-1H-pyrazol-1-yl)ethan-1-ol]: the IC50 was under 1 nM in experiment [1] and under 10 nM in experiment [2] (Homo sapiens, RT112/84, 72 h).

Consider `CC(C#N)n1cc(-c2cnc3ccn4c(C(F)F)c(-c5c(Cl)cccc5Cl)nc4c3c2)cn1` (stereo not drawn) [Example 32, 2-(4-(2-(2,6-Dichlorophenyl)-3-(difluoromethyl)imidazo[2,1-f][1,6]naphthyridin-9-yl)-1H-pyrazol-1-yl)propanenitrile], for which the concentration for half-maximal inhibition (IC50) in experiment [1] was under 1 nM; in experiment [2] (Homo sapiens, RT112/84, 72 h), under 10 nM.

As to `CC(CC#N)n1cc(-c2cnc3ccn4c(CO)c(-c5c(Cl)cccc5Cl)nc4c3c2)cn1` (single isomer, unassigned) [23 peak 1], the half-maximal inhibitory concentration (IC50) is under 1 nM in experiment [1] and 10 to 50 nM in experiment [2] (Homo sapiens, RT112/84, 72 h).

With `CC(O)Cn1cc(-c2cnc3ccn4c(CO)c(-c5c(Cl)cccc5Cl)nc4c3c2)cn1` (single isomer, unassigned) [18 peak 2], the IC50 in experiment [1] lay within 1 to 5 nM; in experiment [2], 10 to 50 nM.

With `O=C(c1ccc(-c2cnc3ccn4c(CO)c(-c5c(Cl)cccc5Cl)nc4c3c2)cc1)N1C[C@@H]2C[C@H]1CO2` [Example 7, ((1S,4S)-2-Oxa-5-azabicyclo[2.2.1]heptan-5-yl)(4-(2-(2,6-dichlorophenyl)-3-(hydroxymethyl)imidazo[2,1-f][1,6]naphthyridin-9-yl)phenyl)methanone], the IC50 in experiment [1] lay within 1 to 5 nM; in experiment [2] (Homo sapiens, RT112/84, 72 h), 10 to 50 nM.

In the case of `CC(CC#N)n1cc(-c2cnc3ccn4c(CO)c(-c5c(Cl)cccc5Cl)nc4c3c2)cn1` (single isomer, unassigned) [23 peak 2], the IC50 in experiment [1] is under 1 nM; in experiment [2] it was 10 to 50 nM.

On to `Cc1c(-c2c(Cl)cccc2Cl)nc2c3cc(-c4cnn(C5CN(C(=O)c6cn(C)nn6)C5)c4)cnc3ccn12` [Example 13, (3-(4-(2-(2,6-Dichlorophenyl)-3-methylimidazo[2,1-J][1,6]naphthyridin-9-yl)-1H-pyrazol-1-yl)azetidin-1-yl)(1-methyl-1H-1,2,3-triazol-4-yl)methanone], for which the IC50 was in the range of 1 to 5 nM in experiment [1] and 10 to 50 nM in experiment [2] (Homo sapiens, RT112/84, 72 h).

Turning to `COCC(=O)N1CC(Cn2cc(-c3cnc4ccn5c(CO)c(-c6c(Cl)cccc6Cl)nc5c4c3)cn2)C1` [Example 27, 1-(3-((4-(2-(2,6-Dichlorophenyl)-3-(hydroxymethyl)imidazo[2,1-f][1,6]naphthyridin-9-yl)-1H-pyrazol-1-yl)methyl)azetidin-1-yl)-2-methoxyethan-1-one], the IC50 in experiment [1] was 1 to 5 nM; in experiment [2] (Homo sapiens, RT112/84, 72 h) it was 10 to 50 nM.

`FC(F)c1c(-c2c(Cl)cccc2Cl)nc2c3cc(-c4cnn(C5CCOCC5)c4)cnc3ccn12` [Example 30, 2-(2,6-Dichlorophenyl)-3-(difluoromethyl)-9-(1-(tetrahydro-2H-pyran-4-yl)-1H-pyrazol-4-yl)imidazo[2,1-J][1,6]naphthyridine]: the concentration for half-maximal inhibition (IC50) in experiment [1] is under 1 nM; in experiment [2] (Homo sapiens, RT112/84, 72 h), under 10 nM.

As for `CN1CCC(n2cc(-c3cnc4ccn5c(CCO)c(-c6c(Cl)cccc6Cl)nc5c4c3)cn2)CC1` [Example 34, 2-(2-(2,6-Dichlorophenyl)-9-(1-(1-methylpiperidin-4-yl)-1H-pyrazol-4-yl)imidazo[2,1-f][1,6]naphthyridin-3-yl)ethan-1-ol], the IC50 is 1 to 5 nM in experiment [1] and 10 to 50 nM in experiment [2] (Homo sapiens, RT112/84, 72 h).

Consider `CC(=O)N1CCN(Cc2ccc(-c3cnc4ccn5c(CO)c(-c6c(Cl)cccc6Cl)nc5c4c3)cc2)CC1` [Example 9, 1-(4-(4-(2-(2,6-Dichlorophenyl)-3-(hydroxymethyl)imidazo[2,1-f][1,6]naphthyridin-9-yl)benzyl)piperazin-1-yl)ethan-1-one], for which the IC50 is 1 to 5 nM in experiment [1] and 10 to 50 nM in experiment [2] (Homo sapiens, RT112/84, 72 h).
